Test results from patent US20060166900A1, “Salt of morphine-6-glucuronide” (CeNeS Limited, priority 2002, published 2006).

Assays:
Format in all cases: physicochemical
[1] = Stability of M6G salts at room temperature over 6 years, HPLC; details: for Assay M6G corr.: content calculated as M6G derivative
[2] = Visual appearance on storage (Example 3)
Description: (§1) Each test material was stored between 2-8*C prior to placing on stability. Each material was sub-divided into 900 mg aliquots, transferred to brown opaque HDPE plastic bottles and flushed with Argon prior to sealing. Sufficient samples were provided for each time point as well as spares for each storage condition. The samples were placed in appropriate incubators previously commissioned at storage conditions 25° C./60% RH, 40° C./75% RH and 60° C.
The samples were stored for analysis according to the following table: […]

[3] = Water content by Karl Fisher analysis on storage (Example 3)
Description: Water content (% w/w) by Karl Fisher analysis
as §1
Water Content by Karl Fisher Analysis
Water content was determined in duplicate on an aliquot of equilibrated material (approximately 100 mg) using a Tritrino 720 KFS Titrator.

[4] = Colour of solution by visible spectrophotometry on storage (Example 3); details: 5% w/v solution in water
Description: Colour of solution by UV spectrophotometry.
as §1
Colour by Visible Spectrophotometry
A 5% w/v solution of test material was prepared in water and the absorbance measured at 420 nm in a 1 cm silica cell using a Unicam UV4 Visible/UV spectrophotometer.

[5] = Stability indicating HPLC assay and related substances on storage (Example 3)
Description: Assay (% w/w) and related substances determination
as §1
Testing Procedures Test for Identity Content and Impurities
Testing was performed in duplicate (2×25 mg) in accordance with a stability indicating HPLC assay method. The assay results were reported as M6G as is, M6G as the anhydrous, solvent free material and the anhydrous solvent free material corrected for the salt form using the relevant conversion factor.

CN1CC[C@]23c4c5ccc(O)c4O[C@H]2[C@@H](O[C@@H]2O[C@H](C(=O)O)[C@@H](O)[C@H](O)[C@H]2O)C=C[C@H]3[C@H]1C5.Cl [Morphine-6-glucuronide hydrochloride]
HN-33177 ([1]; 0 years): 0.3%
HN-75083 ([1]; 0 years): <0.1%
Unknown related substances (sum area %) ([1]; 0 years): <0.1 area %
Assay M6G corr. ([1]; 0 years): 88.7%
HN-67002 ([1]; 6 years at ambient temperature): 1.3%
HN-67003 ([1]; 6 years at ambient temperature): 2.1%
Morphine ([1]; 6 years at ambient temperature): 0.2%
Unknown related substances (sum area %) ([1]; 6 years at ambient temperature): 9.2 area %
Assay M6G corr. ([1]; 6 years at ambient temperature): 74.8%
HN-33177 ([1]; 6 years at ambient temperature, hydrochloride): 0.2%
HN-33177 ([1]; 6 years at ambient temperature, listed as M6G.HCl, hydrochloride): remained unchanged
peaks present in the chromatogram that cannot be identified by retention time ([1]; almost 6 years at room temperature): 17
Appearance ([2]; 1 month, 25° C./60% RH): White crystalline powder
Appearance ([2]; 1 month, 40° C./75% RH): Slightly yellow crystalline powder
Appearance ([2]; 1 month, 60° C.): Pale yellow crystalline powder
Appearance ([2]; 3 months, 25° C./60% RH, hydrochloride): White crystalline powder
Appearance ([2]; 3 months, 25° C./60% RH, listed as hydrochloride, hydrochloride): white crystalline solids
Appearance ([2]; 3 months, 40° C./75% RH): Yellow crystalline powder
Appearance ([2]; Initial): White crystalline powder
Moisture ([3]; 1 month, 25° C./60% RH): 5.10 % w/w
Moisture ([3]; 1 month, 40° C./75% RH): 6.24 % w/w
Moisture ([3]; 1 month, 60° C.): 4.44 % w/w
Moisture ([3]; 3 months, 25° C./60% RH): 6.06 % w/w
Moisture ([3]; 3 months, 40° C./75% RH): 9.02 % w/w
Moisture ([3]; Initial): 4.31 % w/w
Colour ([4]; 1 month, 25° C./60% RH): 0.147 Abs@420 nm
Colour ([4]; 1 month, 40° C./75% RH): 0.444 Abs@420 nm
Colour ([4]; 1 month, 60° C.): 1.183 Abs@420 nm
Colour ([4]; 3 months, 25° C./60% RH): 0.253 Abs@420 nm
Colour ([4]; 3 months, 40° C./75% RH): 2.107 Abs@420 nm
Colour ([4]; Initial): 0.059 Abs@420 nm
Known Related Substances HN33177 ([5]; 1 month, 25° C./60% RH): 0.63%
Known Related Substances HN67003 ([5]; 1 month, 25° C./60% RH): 0.38%
Known Related Substances HN75076 ([5]; 1 month, 25° C./60% RH): 0.04%
Known Related Substances HN75083 ([5]; 1 month, 25° C./60% RH): 0.03%
M6G Assay, Anhydrous basis ([5]; 1 month, 25° C./60% RH): 92.03 % w/w
M6G Assay, As is basis ([5]; 1 month, 25° C./60% RH): 79.21 % w/w
M6G Assay, Corrected for the salt form ([5]; 1 month, 25° C./60% RH): 99.30 % w/w
Total Known ([5]; 1 month, 25° C./60% RH): 1.08%
Total Related Substances ([5]; 1 month, 25° C./60% RH): 2.41%
Total Unknown ([5]; 1 month, 25° C./60% RH): 1.33%
Known Related Substances HN33177 ([5]; 1 month, 40° C./75% RH): 0.41%
Known Related Substances HN67003 ([5]; 1 month, 40° C./75% RH): 3.01%
Known Related Substances HN75076 ([5]; 1 month, 40° C./75% RH): 0.34%
Known Related Substances HN75083 ([5]; 1 month, 40° C./75% RH): 0.07%
Known Related Substances Morphine ([5]; 1 month, 40° C./75% RH): 0.08%
M6G Assay, Anhydrous basis ([5]; 1 month, 40° C./75% RH): 81.39 % w/w
M6G Assay, As is basis ([5]; 1 month, 40° C./75% RH): 69.13 % w/w
M6G Assay, Corrected for the salt form ([5]; 1 month, 40° C./75% RH): 87.81 % w/w
Total Known ([5]; 1 month, 40° C./75% RH): 3.91%
Total Related Substances ([5]; 1 month, 40° C./75% RH): 15.16%
Total Unknown ([5]; 1 month, 40° C./75% RH): 11.25%
Known Related Substances HN33177 ([5]; 1 month, 60° C.): 0.12%
Known Related Substances HN67003 ([5]; 1 month, 60° C.): 3.55%
Known Related Substances HN75076 ([5]; 1 month, 60° C.): 0.55%
Known Related Substances HN75083 ([5]; 1 month, 60° C.): 0.03%
Known Related Substances Morphine ([5]; 1 month, 60° C.): 0.46%
M6G Assay, Anhydrous basis ([5]; 1 month, 60° C.): 75.78 % w/w
M6G Assay, As is basis ([5]; 1 month, 60° C.): 65.73 % w/w
M6G Assay, Corrected for the salt form ([5]; 1 month, 60° C.): 81.76 % w/w
Total Known ([5]; 1 month, 60° C.): 4.71%
Total Related Substances ([5]; 1 month, 60° C.): 20.94%
Total Unknown ([5]; 1 month, 60° C.): 16.23%
Known Related Substances HN33177 ([5]; 3 months, 25° C./60% RH): 0.50%
Known Related Substances HN67003 ([5]; 3 months, 25° C./60% RH): 1.31%
Known Related Substances HN75083 ([5]; 3 months, 25° C./60% RH): 0.03%
Known Related Substances Morphine ([5]; 3 months, 25° C./60% RH): 0.21%
M6G Assay, Anhydrous basis ([5]; 3 months, 25° C./60% RH): 87.71 % w/w
M6G Assay, As is basis ([5]; 3 months, 25° C./60% RH): 75.48 % w/w
M6G Assay, Corrected for the salt form ([5]; 3 months, 25° C./60% RH): 94.64 % w/w
Total Known ([5]; 3 months, 25° C./60% RH): 2.05%
Total Related Substances ([5]; 3 months, 25° C./60% RH): 9.52%
Total Unknown ([5]; 3 months, 25° C./60% RH): 7.47%
decrease in assay compared to initial ([5]; 3 months, 25° C./60% RH): around 6%
Known Related Substances HN33177 ([5]; 3 months, 40° C./75% RH): 0.07%
Known Related Substances HN67003 ([5]; 3 months, 40° C./75% RH): 3.71%
Known Related Substances HN75076 ([5]; 3 months, 40° C./75% RH): 1.67%
Known Related Substances HN75083 ([5]; 3 months, 40° C./75% RH): 0.01%
Known Related Substances Morphine ([5]; 3 months, 40° C./75% RH): 1.55%
M6G Assay, Anhydrous basis ([5]; 3 months, 40° C./75% RH): 61.41 % w/w
M6G Assay, As is basis ([5]; 3 months, 40° C./75% RH): 51.00 % w/w
M6G Assay, Corrected for the salt form ([5]; 3 months, 40° C./75% RH): 66.26 % w/w
Total Known ([5]; 3 months, 40° C./75% RH): 7.01%
Total Unknown ([5]; 3 months, 40° C./75% RH): 51.57%
drop in assay compared to the initial values ([5]; 3 months, 40° C./75% RH): approx 34%
Total Related Substances ([5]; 3 months, 40° C./75% RH, hydrochloride): 58.58%
Total Related Substances ([5]; 3 months, 40° C./75% RH, listed as hydrochloride, hydrochloride): around 54.5%
stability assessment ([5]; 40° C./75% RH over 3 months (base also 60° C. over 1 month)): least stable
Known Related Substances HN33177 ([5]; Initial): 0.63%
Known Related Substances HN67003 ([5]; Initial): 0.07%
Known Related Substances HN75076 ([5]; Initial): 0.01%
Known Related Substances HN75083 ([5]; Initial): 0.06%
M6G Assay, Anhydrous basis ([5]; Initial): 93.28 % w/w
M6G Assay, As is basis ([5]; Initial): 81.63 % w/w
M6G Assay, Corrected for the salt form ([5]; Initial): 100.65 % w/w
Total Known ([5]; Initial): 0.77%
Total Related Substances ([5]; Initial): 1.24%
Total Unknown ([5]; Initial): 0.47%
overall stability comparison ([5]; overall review of Example 3 data): least stable
